This experiment relates to 521955-158-R2-J5-PDC complex spheroid growth, % test/control. As to the kind of experiment: Anticancer human tumor 521955-158-R2-J5-PDC patient-derived pancreatic carcinoma cell line growth inhibition [Asc]. The conditions noted are these: for viability, T/C: stronger effect = lower value. The protocol:
Multicellular complex tumor spheroid response to apoptosis pathway targeting inhibitors Alrizomadlin, Pelcitoclax, and Dasminapant in combination with a variety of drugs and investigational agents in selected tumor cell lines
The MDM2 inhibitor alrizomadlin, the Bcl-2/Bcl-xL inhibitor pelcitoclax, and the IAPs inhibitor dasminapant were evaluated both individually and in combination with standard of care and investigational anticancer small molecules within a complex spheroid model of solid tumors. . Complex spheroids include a stromal component modeled by human endothelial cells (HUVEC) and fibroblasts modeled by human mesenchymal stem cells (MSCs). The concentration ranges selected for each drug and investigational agent were based upon clinically achievable concentrations if the clinical Cmax of the agent was known.
Compounds. The drugs and investigational agents: alrizomadlin (APG-115; NSC831270), pelcitoclax (APG-1252; NSC835773), dasminapant (APG-1387;NSC834197), TAK-243 (NSC785004), copanlisib (NSC809693), olaparib (NSC753686), talazoparib (NSC767125), cobimetinib (NSC 768068), eltanexor (KPT-8602, NSC 794443), abemaciclib (NSC 768073), sotorasib (NSC818433), adagrasib (NSC 831453), MRTX-1133 (NSC 836407), Iadademestat (ORY1001, NSC 806812), and RMC-4630 (NSC839698), were obtained from the NCI Developmental Therapeutics Program Chemical Repository. The FDA-approved anticancer drug set is available from the Developmental Therapeutics Program at https://dtp.cancer.gov/organization/dscb/obtaining/available plates.htm. […] The stock solutions were prepared in dimethyl sulfoxide (DMSO, Sigma-Aldrich, St. Louis, MO, cat. D2650) at 800-fold the tested concentration and stored at -70 degrees C prior to their use. All drugs and investigational agents were tested over a range starting from a high concentration at or near the clinical Cmax and decreasing in half-log increments. If the clinical Cmax for an agent had not been determined, the highest concentration tested was 10 microM.
The patient-derived cancer (PDC) cell lines include five colon adenocarcinomas: 186277-243-T-J2-PDC, 616215-338-R-J1-PDC, 439559-082-T-J2-PDC, 463943-066-T-J2-PDC, and 519858-162-T-J1-PDC; three pancreatic carcinomas: 323965-272-R-J2-PDC, 521955-158-R6-J3-PDC, and 521955-158-R2-J5-PDC; two uterine sarcomas: 327498-152-R-J2-PDC and 993429-296-R-J1-PDC; two rhabdomyosarcomas: 755483-174-R-J1-PDC and 772245-204-R-J1-PDC; two soft tissue sarcomas: 126254-015-R-J1-PDC and 494315-158-R-J1-PDC; two malignant fibrous histiocytomas: 317291-083-R-J1-PDC and 596521-263-R-J1-PDC; two breast carcinomas: 171881-019-R-J1-PDC and 885512-296-R-J2-PDC; and one ovarian carcinoma: 6556581-035-R-J-PDC were obtained from the NCI PDMR, (https://pdmr.cancer.gov). The established cell lines HSSY-2 synovial sarcoma (RRID:CVCL 8719), SYO-1 synovial sarcoma (RRID:CVCL_7146), MPNST malignant peripheral neural sheath tumor were obtained from the Sloan Kettering Institute. The following established cell lines were purchased from the American Type Culture Collection (ATCC, Manassas, VA), Sor the received from the NCI repository:, PANC-1 pancreatic carcinoma (CRL-1469, RRID:CVCL_0480), OVCAR-5 ovarian carcinoma (RRID:CVCL_1628), OVCAR-8 ovarian carcinoma (RRID:CVCL_1629), , MCF-7 breast carcinoma (CRL-12584, RRID:CVCL_0031), MDA-MB-231 breast carcinoma (CRL-12532, RRID:CVCL_0062), NCI-H1876 small cell lung carcinoma (CRL-5902, RRID:CVCL_1503), NCI-H510A small cell lung carcinoma (HTB-184, RRID:CVCL_1565), NCI-H1417 (CRL-5869, RRID:CVCL_1469), and NCI-H196 small cell lung carcinoma (CRL-5823, RRID:CVCL_1509). Dr. Peter Houghton (Greehey Children's Cancer Research Institute, University of Texas Health Science Center, San Antonio, TX) provided Rh-18 rhabdomyosarcoma (RRID:CVCL_1659). Pooled donor human umbilical vein endothelial cells (HUVEC, Lonza, cat. CC-2519) and human mesenchymal stem cells (hMSC, Lonza, cat. PT-2501) were purchased from Lonza (Walkersville, MD).
Cell Culture. […]

The source of these data is PubChem BioAssay AID1963430 (Molecular Pharmacology Branch, DTP, NCI, 2024).

SMILES strings stand for the structures. “And” between values parts separate entries of the source, which are not always exact repeats. Identical values can stand only once.
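Further: spheroids exposed to agents for 7 days before readout.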
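Wherever viability, T/C is given: 100% = DMSO vehicle control viability.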

One may read the viability, T/C as the result in the treated group divided by that in the control group, in per cent. One may read the IC50 as the midpoint of a concentration-inhibition curve. With `C#Cc1c(F)ccc2cc(O)cc(-c3ncc4c(N5CC6CCC(C5)N6)nc(OCC56CCCN5CC(F)C6)nc4c3F)c12` (stereo unspecified), the viability, T/C was 23.2% and 40.7% and 50.5% (compound 0.0316 µM); 28.2% and 48.4% and 47.1% (compound 0.1 µM); 22.3% and 37.1% and 31.9% (compound 0.316 µM); 20.6% and 36.3% and 36.4% (compound 1 µM); 24.6% and 37.5% and 33.1% (compound 3.16 µM); 21.9% and 34.4% and 44.3% (compound 10 µM). Where the note is “curve of compound”, the IC50 is < 31.6 nM and 35.9 nM.
Take `C=C(F)C(=O)N1CCN(c2nc(OCC3CCCN3C)nc3c2CCN(c2cccc4cccc(Cl)c24)C3)CC1CC#N` (stereo unspecified): the viability, T/C by setting is: (compound 0.0316 µM) 68.6% and 77.1% and 84.2%; (compound 0.1 µM) 89% and 77.1% and 94.1%; (compound 0.316 µM) 78.8% and 86.1% and 107%; (compound 1 µM) 105% and 95.4% and 98.1%; (compound 3.16 µM) 115% and 136% and 120%; (compound 10 µM) 0.29% and 0.32% (2×). Also, for the setting “curve of compound”, the IC50 is 5330 nM and 5440 nM and 5660 nM.
With `C=CC(=O)N1CCN(c2nc(=O)n(-c3c(C)ccnc3C(C)C)c3nc(-c4c(O)cccc4F)c(F)cc23)C(C)C1` (stereo unspecified), the viability, T/C reads like this: (compound 0.0316 µM) 87.7% and 88.9% and 88.2%; (compound 0.1 µM) 72.1% and 90.3% and 87.8%; (compound 0.316 µM) 76.3% and 92.3% and 90.2%; (compound 1 µM) 108% and 87.7% and 113%; (compound 3.16 µM) 102% and 121% and 112%; (compound 10 µM) 101% (2×) and 95.5%. For the same compound, for the setting “curve of compound”, the IC50 is greater than 10000 nM.
In the case of `CCN1C(C(=O)NC23CCC(C(=O)O)(CC2)CC3)C(c2cccc(Cl)c2F)C2(C(=O)Nc3cc(Cl)ccc32)C12CCCCC2` (stereo unspecified), the viability, T/C (compound 0.00949 µM) is 94.9% and 87.6%. Further, the IC50 (compound alone, run of 09/27/2022) was greater than 3000 nM and the IC50 (curve of compound) was greater than 3000 nM.
On to `CCN1CCN(Cc2ccc(Nc3ncc(F)c(-c4cc(F)c5nc(C)n(C(C)C)c5c4)n3)nc2)CC1`, for which the viability, T/C is, setting by setting: (compound 0.00316 µM) 70.6% and 82.3% and 87.5%; (compound 0.01 µM) 72% and 65.5% and 92.3%; (compound 0.0316 µM) 54.5% and 79.2% and 78.5%; (compound 0.1 µM) 66.6% and 70.4% and 70.9%; (compound 0.316 µM) 74.6% and 71.2% and 91.2%; (compound 1 µM) 103% and 98.6% and 108%. Moreover, for the setting “curve of compound”, the IC50 was greater than 1000 nM.
Regarding `CNC(C)C(=O)NC1CN(S(=O)(=O)c2cccc(S(=O)(=O)N3CCC4CCC(C(=O)NC(c5ccccc5)c5ccccc5)N4C(=O)C(NC(=O)C(C)NC)C3)c2)CCC2CCC(C(=O)NC(c3ccccc3)c3ccccc3)N2C1=O` (stereo unspecified), the viability, T/C (compound 0.00316 µM) was 72.5% and 68.6%. Moreover, the IC50 was greater than 1000 nM (compound alone, run of 10/03/2022) and greater than 1000 nM (curve of compound).
On to `COc1c(OCCCN2CCOCC2)ccc2c3n(c(=NC(=O)c4cnc(N)nc4)nc12)CCN3`, for which the viability, T/C is, setting by setting: (compound 0.00316 µM) 53.2% and 58.9% and 68.7%; (compound 0.01 µM) 51.9% and 45.7% and 44%; (compound 0.0316 µM) 40.8% and 38.2% and 34.3%; (compound 0.1 µM) 30.1% and 31.6% and 29.1%; (compound 0.316 µM) 18.9% and 20% and 19.9%; (compound 1 µM) 15.3% and 16.1% and 14.2%. Moreover, the IC50 (curve of compound) was 10.7 nM and 7.52 nM and 8.61 nM.
`Cc1nc(N2CCC3(CC2)COC(C)C3N)c(CO)nc1Sc1ccnc(N)c1Cl` (stereo unspecified): the viability, T/C is, setting by setting: (compound 0.00949 µM) 70.6% and 72.1% and 91.2%; (compound 0.03 µM) 68.2% and 54.1% and 87.1%; (compound 0.0949 µM) 59.4% and 48.2% and 62.4%; (compound 0.3 µM) 48.2% (2×) and 65.5%; (compound 0.949 µM) 55.2% and 53.1% and 52.7%; (compound 3 µM) 51.9% and 43.2% and 57.4%.
As to `Cn1ncnc1[C@H]1c2n[nH]c(=O)c3cc(F)cc(c23)N[C@@H]1c1ccc(F)cc1`, the viability, T/C is 106% and 99.6% and 79.6% (compound 0.000316 µM); 81.4% and 87.9% and 79.3% (compound 0.001 µM); 68.4% and 93.3% and 73.6% (compound 0.00316 µM); 76.5% and 83.7% and 68.9% (compound 0.01 µM); 81.5% and 76.8% and 63.5% (compound 0.0316 µM); 57.7% and 68.6% and 70.2% (compound 0.1 µM). Further, the IC50 (curve of compound) is greater than 100 nM.
Turning to `NC(=O)C(=Cn1cnc(-c2cc(C(F)(F)F)cc(C(F)(F)F)c2)n1)c1cncnc1`, the viability, T/C by setting is: (compound 0.000949 µM) 68.4% and 84.3% and 83.5%; (compound 0.003 µM) 42.6% and 54.8% and 95.5%; (compound 0.00949 µM) 37.3% and 48.3% and 47.9%; (compound 0.03 µM) 28.6% and 36.7% and 57.8%; (compound 0.0949 µM) 27.8% and 32.6% and 43.7%; (compound 0.3 µM) 23.8% and 48% and 30.4%.
Consider `NC1CCC(NC2CC2c2ccccc2)CC1` (stereo unspecified), for which the viability, T/C runs as follows: (compound 0.000316 µM) 63.1% and 63.5% and 88.5%; (compound 0.001 µM) 57% and 64.8% and 83.1%; (compound 0.00316 µM) 52.8% and 60% and 75.8%; (compound 0.01 µM) 68.5% and 49.6% and 95%; (compound 0.0316 µM) 58.5% and 56.5% and 90.8%; (compound 0.1 µM) 60% and 61.9% and 74%. For the same compound, for the setting “curve of compound”, the half-inhibitory concentration (IC50) is greater than 100 nM.
For the compound `O=C(c1cc(Cc2n[nH]c(=O)c3ccccc23)ccc1F)N1CCN(C(=O)C2CC2)CC1`, the viability, T/C reads like this: (compound 0.0316 µM) 80.7% and 80% and 97.9%; (compound 0.1 µM) 79.6% and 89.4% and 92.2%; (compound 0.316 µM) 71.8% and 89.7% and 84.1%; (compound 1 µM) 62.2% and 88.6% and 85.9%; (compound 3.16 µM) 76.3% and 93.4% and 74.3%; (compound 10 µM) 60.8% and 63.9% and 61.5%. For the same compound, where the note is “curve of compound”, the IC50 was greater than 10000 nM.
Take `O=C(c1ccc(F)c(F)c1Nc1ccc(I)cc1F)N1CC(O)([C@@H]2CCCCN2)C1`: the viability, T/C was 73.4% and 81.6% and 64.9% (compound 0.00316 µM); 73.2% and 72.4% and 79.1% (compound 0.01 µM); 61.1% and 71.3% and 49.6% (compound 0.0316 µM); 47.8% and 51.4% and 31% (compound 0.1 µM); 41.1% and 47.1% and 32.3% (compound 0.316 µM); 33.1% and 31.4% and 26% (compound 1 µM). Under “curve of compound”, the IC50 was 90.2 nM and 184 nM and 30.9 nM.
